Consider 29 molecules from patent publication US20090325964A1, “Piperazine Metabotropic Glutamate Receptor 5 (MGLUR5) Negative Allosteric Modulators For Anxiety/Depression” (Wyeth, priority 2008, published 2009).

SMILES strings stand for the structures.

T1 sequence (P31424 21-1203): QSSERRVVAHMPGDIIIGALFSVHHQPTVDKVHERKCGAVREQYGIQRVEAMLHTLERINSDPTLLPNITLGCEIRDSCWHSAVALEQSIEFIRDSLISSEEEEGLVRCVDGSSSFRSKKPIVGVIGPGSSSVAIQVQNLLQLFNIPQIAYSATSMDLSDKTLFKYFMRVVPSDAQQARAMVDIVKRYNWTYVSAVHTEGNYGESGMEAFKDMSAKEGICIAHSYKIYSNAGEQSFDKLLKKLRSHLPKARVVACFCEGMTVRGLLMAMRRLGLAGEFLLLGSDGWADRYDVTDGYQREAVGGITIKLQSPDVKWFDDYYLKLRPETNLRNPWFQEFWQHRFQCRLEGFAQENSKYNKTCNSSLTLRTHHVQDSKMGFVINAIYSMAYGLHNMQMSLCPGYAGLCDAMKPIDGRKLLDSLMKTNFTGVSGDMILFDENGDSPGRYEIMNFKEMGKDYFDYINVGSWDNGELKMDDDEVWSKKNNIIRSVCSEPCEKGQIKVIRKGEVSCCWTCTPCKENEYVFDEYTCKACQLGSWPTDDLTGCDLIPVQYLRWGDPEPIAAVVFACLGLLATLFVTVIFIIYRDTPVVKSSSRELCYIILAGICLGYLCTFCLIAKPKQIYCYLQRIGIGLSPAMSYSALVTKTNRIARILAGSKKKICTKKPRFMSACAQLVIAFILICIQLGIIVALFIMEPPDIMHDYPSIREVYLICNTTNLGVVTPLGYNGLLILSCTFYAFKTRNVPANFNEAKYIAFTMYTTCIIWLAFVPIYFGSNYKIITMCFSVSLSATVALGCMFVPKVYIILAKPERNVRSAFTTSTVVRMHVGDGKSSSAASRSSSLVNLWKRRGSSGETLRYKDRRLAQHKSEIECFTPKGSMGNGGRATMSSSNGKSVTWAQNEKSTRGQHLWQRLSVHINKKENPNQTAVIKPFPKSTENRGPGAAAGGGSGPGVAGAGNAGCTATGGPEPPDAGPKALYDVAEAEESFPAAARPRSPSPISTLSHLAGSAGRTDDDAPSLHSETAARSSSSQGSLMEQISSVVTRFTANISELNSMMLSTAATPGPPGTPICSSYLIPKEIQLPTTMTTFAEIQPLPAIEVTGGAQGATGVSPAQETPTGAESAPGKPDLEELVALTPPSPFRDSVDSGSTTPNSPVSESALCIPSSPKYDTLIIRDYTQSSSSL

One assay concerns the target T1, rat mGluR5 receptor (Rattus norvegicus, UniProt P31424).
T1 construct: expressed in transfected cells; host or cells: HEK-293
Briefly: [3H]-MPEP displacement binding assay, HEK-293 cell membranes expressing rat mGluR5. The conditions noted are these: [3H]-MPEP 4 nM; Table 4A; read-out: Median Ki. The essentials: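 Membranes from HEK-293 cells expressing rat mGluR5 (12-25 μg protein), incubated 60 min at room temperature with 4 nM [3H]-MPEP in 50 mM Tris pH 7.5, then filtered. Nonspecific binding defined with 10 μM MPEP.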
As a reminder, the Ki is a dissociation constant, usually derived from enzyme kinetics or from competition with a known ligand. As to `Cc1cccc(OCc2cccc(C(=O)N3CCN(c4ccccn4)CC3)c2)c1` [Compound 164, 1-{3-[(3-methylphenoxy)methyl]benzoyl}-4-pyridin-2-ylpiperazine], the inhibition constant Ki came to 1.75 µM.
Same read-out and setting: under `N#Cc1cccc(OCc2cccc(C(=O)N3CCN(c4ccccn4)CC3)c2)c1` [Compound 165, 3-({3-[(4-pyridin-2-ylpiperazin-1-yl)carbonyl]benzyl}oxy)benzonitrile] stands 2.97 µM; under `CCc1cccc(OCc2cccc(C(=O)N3CCN(c4ccccn4)CC3)c2)c1` [Compound 166, 1-{3-[(3-ethylphenoxy)methyl]benzoyl}-4-pyridin-2-ylpiperazine], greater than 10 µM.
Turning to `COc1cccc(OCc2cccc(C(=O)N3CCN(c4ccccn4)CC3)c2)c1` [Compound 167, 1-{3-[(3-methoxyphenoxy)methyl]benzoyl}-4-pyridin-2-ylpiperazine], the Ki is greater than 10 µM.
`O=C(c1cccc(COc2cccc(Cl)c2)c1)N1CCN(c2ccccn2)CC1` [Compound 168, 1-{3-[(3-chlorophenoxy)methyl]benzoyl}-4-pyridin-2-ylpiperazine]: the Ki is 0.813 µM.
Take `O=C(c1cccc(COc2cccc(Br)c2)c1)N1CCN(c2ccccn2)CC1` [Compound 169, 1-{3-[(3-bromophenoxy)methyl]benzoyl}-4-pyridin-2-ylpiperazine]: the Ki worked out at 0.862 µM.
Consider `O=C(c1cccc(COc2ccccn2)c1)N1CCN(c2ccccn2)CC1` [Compound 170, 1-pyridin-2-yl-4-{3-[(pyridin-2-yloxy)methyl]benzoyl}piperazine], for which the Ki is greater than 10 µM.
In the case of `O=C(c1cccc(COc2ccccc2)c1)N1CCN(c2ccccn2)CC1` [Compound 171, 1-[3-(phenoxymethyl)benzoyl]-4-pyridin-2-ylpiperazine], the Ki was greater than 10 µM.

Still in this assay, the particulars now being: [3H]-MPEP 4 nM; Table 7A; read-out: Median Ki.
For the molecule `COc1ccc(C(=O)N2CCN(c3ccccn3)CC2)cc1/C=C/c1ccccc1` [Compound 182, 1-{4-methoxy-3-[(E)-2-phenylvinyl]benzoyl}-4-pyridin-2-ylpiperazine], the Ki came out at 0.827 µM.

The assay is the same for the next values; noted with them: [3H]-MPEP displacement, rat mGluR5; read-out: Median Ki.
`COc1ccc(C(=O)N2CCCN(c3ccc(C#N)cn3)CC2)cc1C#Cc1ccccn1` [Compound 202, 6-{4-[4-methoxy-3-(pyridin-2-ylethynyl)benzoyl]-1,4-diazepan-1-yl}nicotinonitrile]: the Ki amounted to 1.04 µM.
As to `COc1ccc(C(=O)N2CCCN(c3ncccc3C(F)(F)F)CC2)cc1C#Cc1ccccn1` [Compound 209, 1-[4-methoxy-3-(pyridin-2-ylethynyl)benzoyl]-4-[3-(trifluoromethyl)pyridin-2-yl]-1,4-diazepane], the Ki is 0.674 µM.
`COc1ccc(C(=O)N2CCCN(c3ccc(C(F)(F)F)cn3)CC2)cc1C#Cc1ccccn1` [Compound 210, 1-[4-methoxy-3-(pyridin-2-ylethynyl)benzoyl]-4-[5-(trifluoromethyl)pyridin-2-yl]-1,4-diazepane]: the Ki was 0.851 µM.
Turning to `COc1ccc(C(=O)N2CCCN(c3cccc(C)n3)CC2)cc1C#Cc1ccccn1` [Compound 211, 1-[4-methoxy-3-(pyridin-2-ylethynyl)benzoyl]-4-(6-methylpyridin-2-yl)-1,4-diazepane], the Ki amounted to 0.619 µM.
Still for that read-out and setting: under `COc1ccc(C(=O)N2CCCN(c3ncc(C(F)(F)F)cc3Cl)CC2)cc1C#Cc1ccccn1` [Compound 212, 1-[3-chloro-5-(trifluoromethyl)pyridin-2-yl]-4-[4-methoxy-3-(pyridin-2-ylethynyl)benzoyl]-1,4-diazepane] stands 0.704 µM.
Regarding `COc1ccc(C(=O)N2CCCN(c3ncccc3C#N)CC2)cc1C#Cc1ccccn1` [Compound 214, 2-{4-[4-methoxy-3-(pyridin-2-ylethynyl)benzoyl]-1,4-diazepan-1-yl}nicotinonitrile], the Ki is 0.458 µM.
Regarding `COc1ccc(C(=O)N2CCCN(c3ccc([N+](=O)[O-])cn3)CC2)cc1C#Cc1ccccn1` [Compound 215, 1-[4-methoxy-3-(pyridin-2-ylethynyl)benzoyl]-4-(5-nitropyridin-2-yl)-1,4-diazepane], the Ki was found to be 2.19 µM.
On the same count and under the same terms, the figure for `COc1ccc(C(=O)N2CCN(S(=O)(=O)c3ccccc3)CC2)cc1C#Cc1ccccn1` [Compound 224, 1-[4-methoxy-3-(pyridin-2-ylethynyl)benzoyl]-4-(phenylsulfonyl)piperazine] is 0.115 µM.

The same assay, now with this note: single point, @ 10 μM compound; Table 3A; read-out: PCT INHIB (%) @ 10 μM.
Take `COc1ccc(C(=O)N2CCN(c3ccccn3)CC2)cc1OCc1cccc(C#N)c1` [Compound 162, 3-({2-methoxy-5-[(4-pyridin-2-ylpiperazin-1-yl)carbonyl]phenoxy}methyl)benzonitrile]: the inhibition at 10 µM turned out to be 0%.
Still for that read-out and setting: the figure for `COc1ccc(C(=O)N2CCN(c3ccccn3)CC2)cc1OCc1cccc(F)c1` [Compound 163, 1-{3-[(3-fluorobenzyl)oxy]-4-methoxybenzoyl}-4-pyridin-2-ylpiperazine] is 11%.

The assay is the same for the next values; noted with them: single point, @ 10 μM compound; Table 5; read-out: PCT INHIB (%) @ 10 μM.
Consider `O=S(=O)(c1cccc(C#Cc2cccc(O)c2)c1)N1CCN(c2ccccn2)CC1` [Compound 172, 3-({3-[(4-pyridin-2-ylpiperazin-1-yl)sulfonyl]phenyl}ethynyl)phenol], for which the inhibition at 10 µM was found to be 0%.
Same read-out and setting: under `O=S(=O)(c1cccc(C#CC2=CCCCC2)c1)N1CCN(c2ccccn2)CC1` [Compound 173, 1-{[3-(cyclohex-1-en-1-ylethynyl)phenyl]sulfonyl}-4-pyridin-2-ylpiperazine] stands 0%.
On the same count and under the same terms, the figure for `O=S(=O)(c1cccc(C#CCc2ccccc2)c1)N1CCN(c2ccccn2)CC1` [Compound 174, 1-{[3-(3-phenylprop-1-yn-1-yl)phenyl]sulfonyl}-4-pyridin-2-ylpiperazine] is 0%; for `COc1cccc(C#Cc2cccc(S(=O)(=O)N3CCN(c4ccccn4)CC3)c2)c1` [Compound 175, 1-({3-[(3-methoxyphenyl)ethynyl]phenyl}sulfonyl)-4-pyridin-2-ylpiperazine] it is 0%; for `O=S(=O)(c1cccc(C#Cc2ccccc2)c1)N1CCN(c2ccccn2)CC1` [Compound 176, 1-{[3-(phenylethynyl)phenyl]sulfonyl}-4-pyridin-2-ylpiperazine] it is 0%.

Still in this assay, the particulars now being: single point, @ 10 μM compound; Table 6; read-out: PCT INHIB (%) @ 10 μM.
`Oc1cccc(C#Cc2cccc(CN3CCN(c4ccccn4)CC3)c2)c1` [Compound 177, 3-({3-[(4-pyridin-2-ylpiperazin-1-yl)methyl]phenyl}ethynyl)phenol]: the inhibition at 10 µM is 13%.
For `C(#Cc1cccc(CN2CCN(c3ccccn3)CC2)c1)C1=CCCCC1` [Compound 178, 1-[3-(cyclohex-1-en-1-ylethynyl)benzyl]-4-pyridin-2-ylpiperazine], the inhibition at 10 µM was 0%.
In the case of `C(#Cc1cccc(CN2CCN(c3ccccn3)CC2)c1)Cc1ccccc1` [Compound 179, 1-[3-(3-phenylprop-1-yn-1-yl)benzyl]-4-pyridin-2-ylpiperazine], the inhibition at 10 µM was 0%.
The same measure, in the same setting: the figure for `Nc1cccc(C#Cc2cccc(CN3CCN(c4ccccn4)CC3)c2)c1` [Compound 180, 3-({3-[(4-pyridin-2-ylpiperazin-1-yl)methyl]phenyl}ethynyl)aniline] is 0%; for `COc1cccc(C#Cc2cccc(CN3CCN(c4ccccn4)CC3)c2)c1` [Compound 181, 1-{3-[(3-methoxyphenyl)ethynyl]benzyl}-4-pyridin-2-ylpiperazine] it is 0%.

The same assay, now with this note: single point, @ 10 μM compound; Table 7A; read-out: PCT INHIB (%) @ 10 μM.
With `COc1ccc(C(=O)N2CCN(c3ccccn3)CC2)cc1/C=C/c1ccccc1` [Compound 182, 1-{4-methoxy-3-[(E)-2-phenylvinyl]benzoyl}-4-pyridin-2-ylpiperazine], the inhibition at 10 µM was 86%.
